For two molecules, inhibition, delta Tm Staurosporine positive control and ΔTm results are on record in ChEMBL document CHEMBL5303765, “Data for DCP probe BAY-7081” (2023).

Test [1] addresses T1, Alpha-2C adrenergic receptor (Homo sapiens) (UniProt P18825).
T1 sequence (whole entry): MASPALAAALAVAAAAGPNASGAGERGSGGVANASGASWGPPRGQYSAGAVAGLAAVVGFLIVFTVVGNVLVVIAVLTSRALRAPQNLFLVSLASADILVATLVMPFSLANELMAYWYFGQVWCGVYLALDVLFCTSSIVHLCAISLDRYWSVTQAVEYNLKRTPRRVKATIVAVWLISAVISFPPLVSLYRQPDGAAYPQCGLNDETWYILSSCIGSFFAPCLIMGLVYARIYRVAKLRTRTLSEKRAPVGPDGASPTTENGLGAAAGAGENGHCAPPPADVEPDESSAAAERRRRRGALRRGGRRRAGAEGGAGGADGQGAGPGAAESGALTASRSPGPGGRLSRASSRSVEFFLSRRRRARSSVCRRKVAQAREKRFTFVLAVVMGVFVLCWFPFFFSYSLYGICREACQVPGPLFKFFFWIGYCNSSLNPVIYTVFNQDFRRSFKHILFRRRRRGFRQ
Conditions: Compound concentration 10.0 uM.

Test [2] deals with Sigma non-opioid intracellular receptor 1 (Homo sapiens) (UniProt Q99720). Conditions: Compound concentration 10.0 uM.
Sigma non-opioid intracellular receptor 1 (Homo sapiens), sequence (Q99720 whole entry): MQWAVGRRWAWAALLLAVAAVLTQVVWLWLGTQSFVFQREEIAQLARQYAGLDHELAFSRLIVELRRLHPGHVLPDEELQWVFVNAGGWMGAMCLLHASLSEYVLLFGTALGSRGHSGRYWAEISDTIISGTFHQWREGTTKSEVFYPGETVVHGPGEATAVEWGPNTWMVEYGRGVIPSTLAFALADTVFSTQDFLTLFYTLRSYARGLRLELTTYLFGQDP
Test [3] deals with Calcium/calmodulin-dependent protein kinase type 1D (Homo sapiens) (UniProt Q8IU85). In words: CAMK1D SGC Tm panel (DSF). To be noted: for ΔTm: Compound concentration 10.0 uM.
Calcium/calmodulin-dependent protein kinase type 1D (Homo sapiens), sequence (Q8IU85 whole entry, looked up): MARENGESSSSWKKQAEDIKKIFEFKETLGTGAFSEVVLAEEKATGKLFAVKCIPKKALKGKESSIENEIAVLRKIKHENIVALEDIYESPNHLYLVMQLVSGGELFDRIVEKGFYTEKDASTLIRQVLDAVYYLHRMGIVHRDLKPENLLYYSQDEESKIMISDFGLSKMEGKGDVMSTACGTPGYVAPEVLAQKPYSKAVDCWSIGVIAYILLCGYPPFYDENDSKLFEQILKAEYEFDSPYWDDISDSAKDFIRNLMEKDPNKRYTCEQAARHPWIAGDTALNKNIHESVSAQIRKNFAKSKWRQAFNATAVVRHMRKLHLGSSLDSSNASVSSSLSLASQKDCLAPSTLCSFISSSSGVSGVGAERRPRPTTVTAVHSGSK
Test [4] deals with T2, Transcription intermediary factor 1-alpha (Homo sapiens) (UniProt O15164).
T2 sequence (whole entry): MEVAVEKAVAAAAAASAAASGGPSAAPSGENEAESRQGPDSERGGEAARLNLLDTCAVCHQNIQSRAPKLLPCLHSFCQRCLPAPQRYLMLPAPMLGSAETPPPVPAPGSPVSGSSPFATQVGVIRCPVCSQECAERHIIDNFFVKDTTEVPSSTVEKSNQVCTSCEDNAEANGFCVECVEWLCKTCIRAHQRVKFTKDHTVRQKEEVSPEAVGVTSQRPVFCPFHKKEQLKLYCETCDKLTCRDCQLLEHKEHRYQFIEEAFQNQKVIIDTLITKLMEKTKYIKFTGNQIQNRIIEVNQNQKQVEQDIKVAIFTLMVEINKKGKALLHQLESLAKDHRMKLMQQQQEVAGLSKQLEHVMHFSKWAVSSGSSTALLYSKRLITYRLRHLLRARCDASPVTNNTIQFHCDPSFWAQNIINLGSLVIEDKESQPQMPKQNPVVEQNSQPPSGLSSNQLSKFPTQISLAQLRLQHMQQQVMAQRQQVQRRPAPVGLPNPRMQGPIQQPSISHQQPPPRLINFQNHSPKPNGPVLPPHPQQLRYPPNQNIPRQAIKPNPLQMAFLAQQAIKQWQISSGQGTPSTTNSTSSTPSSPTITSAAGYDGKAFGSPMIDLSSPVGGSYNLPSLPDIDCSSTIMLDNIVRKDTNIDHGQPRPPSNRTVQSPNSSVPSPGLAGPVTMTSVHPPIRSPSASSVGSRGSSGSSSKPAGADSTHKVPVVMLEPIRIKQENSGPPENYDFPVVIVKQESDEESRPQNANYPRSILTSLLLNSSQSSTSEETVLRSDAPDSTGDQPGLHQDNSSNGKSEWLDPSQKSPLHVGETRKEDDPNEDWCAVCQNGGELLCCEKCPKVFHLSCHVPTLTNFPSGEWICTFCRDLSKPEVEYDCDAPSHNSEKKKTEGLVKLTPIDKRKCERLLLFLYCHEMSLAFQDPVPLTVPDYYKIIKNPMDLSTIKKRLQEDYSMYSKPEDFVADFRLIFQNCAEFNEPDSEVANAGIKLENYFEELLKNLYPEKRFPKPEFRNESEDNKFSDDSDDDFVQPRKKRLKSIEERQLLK
In words: TIF1 SGC Tm panel (DSF). Conditions: for ΔTm: Compound concentration 10.0 uM.

Test [5] concerns the target Histamine H4 receptor (Homo sapiens) (UniProt Q9H3N8). Conditions: Compound concentration 10.0 uM.
Test [6] deals with T3, Ephrin type-B receptor 3 (Homo sapiens) (UniProt P54753).
T3 sequence (whole entry): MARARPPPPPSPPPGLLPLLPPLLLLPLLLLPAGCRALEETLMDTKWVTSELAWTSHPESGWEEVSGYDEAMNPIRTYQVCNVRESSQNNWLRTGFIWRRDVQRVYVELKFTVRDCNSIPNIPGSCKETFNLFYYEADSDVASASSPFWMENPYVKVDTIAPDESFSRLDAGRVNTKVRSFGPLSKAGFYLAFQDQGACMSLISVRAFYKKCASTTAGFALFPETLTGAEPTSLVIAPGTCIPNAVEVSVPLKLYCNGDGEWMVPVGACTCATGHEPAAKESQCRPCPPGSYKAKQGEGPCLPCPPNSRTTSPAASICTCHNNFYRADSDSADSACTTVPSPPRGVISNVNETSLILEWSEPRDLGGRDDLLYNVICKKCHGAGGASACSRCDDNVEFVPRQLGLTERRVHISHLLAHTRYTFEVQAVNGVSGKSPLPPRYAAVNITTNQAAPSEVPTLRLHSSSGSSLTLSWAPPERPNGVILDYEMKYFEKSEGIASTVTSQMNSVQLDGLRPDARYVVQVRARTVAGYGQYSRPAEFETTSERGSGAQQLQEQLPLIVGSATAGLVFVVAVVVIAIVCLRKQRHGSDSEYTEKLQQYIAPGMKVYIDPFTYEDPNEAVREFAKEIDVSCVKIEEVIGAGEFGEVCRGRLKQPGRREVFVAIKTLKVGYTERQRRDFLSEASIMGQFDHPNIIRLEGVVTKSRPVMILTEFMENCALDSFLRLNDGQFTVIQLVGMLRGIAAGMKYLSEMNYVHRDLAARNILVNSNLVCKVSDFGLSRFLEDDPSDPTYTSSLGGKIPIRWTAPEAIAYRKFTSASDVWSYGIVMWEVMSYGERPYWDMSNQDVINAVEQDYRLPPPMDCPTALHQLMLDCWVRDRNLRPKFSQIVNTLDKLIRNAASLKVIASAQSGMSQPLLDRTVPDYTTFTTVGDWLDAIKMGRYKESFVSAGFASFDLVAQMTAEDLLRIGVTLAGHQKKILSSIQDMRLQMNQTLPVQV
Put plainly: EPHB3 SGC Tm panel (DSF). To be noted: for ΔTm: Compound concentration 10.0 uM.

Histamine H4 receptor (Homo sapiens), sequence (Q9H3N8 whole entry): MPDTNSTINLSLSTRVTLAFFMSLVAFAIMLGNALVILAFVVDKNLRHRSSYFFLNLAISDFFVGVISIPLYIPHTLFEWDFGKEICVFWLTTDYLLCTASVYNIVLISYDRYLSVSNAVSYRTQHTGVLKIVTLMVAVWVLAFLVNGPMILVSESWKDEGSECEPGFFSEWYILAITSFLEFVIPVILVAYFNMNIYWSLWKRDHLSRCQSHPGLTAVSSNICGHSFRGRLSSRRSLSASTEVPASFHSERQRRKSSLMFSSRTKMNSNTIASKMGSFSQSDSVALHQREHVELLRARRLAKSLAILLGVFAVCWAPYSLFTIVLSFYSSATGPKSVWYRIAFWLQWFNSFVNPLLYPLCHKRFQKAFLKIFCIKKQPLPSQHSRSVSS

Turning to `CCC[C@H]1CNCc2c1[nH]c(=O)c(C#N)c2N1CCC2(CC1)CC2`, the results for the inhibition in test [1], in test [2] and in test [5] were 2.5%, 18.1% and 14.2%, respectively. Further, the delta Tm Staurosporine positive control is 10.9 in test [3], 0.0394 in test [4] and 7.02 in test [6]. For the same molecule, the ΔTm is -0.751 in test [3], -0.211 in test [4] and -2.51 in test [6].

As for `CCC[C@@H]1CNCc2c1[nH]c(=O)c(C#N)c2N1CCC2(CC1)CC2`, the results for the inhibition in test [1], in test [2] and in test [5] were -0.07%, 13.2% and -8.1%, respectively. The delta Tm Staurosporine positive control in test [3] is 10.9; in test [4], 0.0394; in test [6] it was 7.02. Also, the ΔTm in test [3] was -0.415; in test [4], -0.244; in test [6] it was -2.16.
